Measured values taken from the supplement of paper PMC10307832.

Experiments:
Experiment in all cases: relative viability (nuclei count vs DMSO), 5 days (fraction); higher = more cells survive
[1] = compound: COc1nc(N)nc2c1ncn2[C@@H]1O[C@H](CO)[C@@H](O)[C@@H]1O [Nelarabine] + CS(=O)(=O)N1CCN(Cc2cc3nc(-c4cccc5[nH]ncc45)nc(N4CCOCC4)c3s2)CC1 [Pictilisib] (partner 1 µM)
How it was run: (§1)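 Each reported value is a median over duplicate plates. It expresses relative viability: treated-well nuclei count divided by vehicle-well nuclei count. Lung cancer cell lines in 1536-well plates were dosed by pin tool a day after seeding, alone with one drug or with a fixed anchor-drug dose plus five library-drug doses (not always all listed) in √10 steps, and nuclei were counted after 5 days.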

[2] = compound: COc1nc(N)nc2c1ncn2[C@@H]1O[C@H](CO)[C@@H](O)[C@@H]1O [Nelarabine] + CC(=O)Nc1cccc(-n2c(=O)n(C3CC3)c(=O)c3c(Nc4ccc(I)cc4F)n(C)c(=O)c(C)c32)c1 [Trametinib] (partner 0.02 µM)
How it was run: as §1

[3] = compound: C=CCn1c(=O)c2cnc(Nc3ccc(N4CCN(C)CC4)cc3)nc2n1-c1cccc(C(C)(C)O)n1 [Adavosertib] + N=C(N)NC(=N)NCCc1ccccc1 [Phenformin] (partner 250 µM)
How it was run: as §1

[4] = compound: COc1nc(N)nc2c1ncn2[C@@H]1O[C@H](CO)[C@@H](O)[C@@H]1O [Nelarabine] + O=C(CCCCCCC(=O)Nc1ccccc1)NO [Vorinostat] (partner 1 µM)
How it was run: as §1

Cell Line | relative viability ([1]; first compound 0.01 µM) | relative viability ([1]; first compound 0.03162 µM) | relative viability ([1]; first compound 0.1 µM) | relative viability ([1]; first compound 0.3162 µM) | relative viability ([1]; first compound 1 µM) | relative viability ([2]; first compound 0.01 µM) | relative viability ([2]; first compound 0.03162 µM) | relative viability ([2]; first compound 0.1 µM) | relative viability ([2]; first compound 0.3162 µM) | relative viability ([2]; first compound 1 µM) | relative viability ([3]; first compound 0.01 µM) | relative viability ([3]; first compound 0.03162 µM) | relative viability ([3]; first compound 0.1 µM) | relative viability ([3]; first compound 0.3162 µM) | relative viability ([4]; first compound 0.01 µM) | relative viability ([4]; first compound 0.03162 µM) | relative viability ([4]; first compound 0.1 µM) | relative viability ([4]; first compound 0.3162 µM) | relative viability ([4]; first compound 1 µM)
NCI-H441 | 0.488 | 0.376 | 0.543 | 0.461 | 0.582 | 0.432 | 0.482 | 0.469 | 0.446 | 0.466 | 0.876 | 0.78 | 1.09 | 0.765 | 0.749 | 0.814 | 1.02 | 0.886 | 0.793
NCI-H460 | 0.408 | 0.431 | 0.379 | 0.407 | 0.337 | 0.124 | 0.213 | 0.0809 | 0.259 | 0.164 | 0.523 | 0.566 | 0.493 | 0.317 | 1.42 | 1.5 | 0.889 | 1.13 | 0.923
NCI-H520 | 0.387 | 0.256 | 0.345 | 0.322 | 0.314 | 0.817 | 0.599 | 0.757 | 0.903 | 0.697 | 0.667 | 0.547 | 0.657 | 0.757 | 0.905 | 0.757 | 0.676 | 0.746 | 0.828
NCI-H596 | 0.402 | 0.445 | 0.399 | 0.376 | 0.446 | 0.912 | 0.861 | 0.783 | 0.907 | 0.834 | 0.662 | 0.909 | 0.754 | 1 | 0.546 | 0.608 | 0.613 | 0.671 | 0.661
NCI-H647 | 0.475 | 0.363 | 0.492 | 0.445 | 0.37 | 0.584 | 0.423 | 0.537 | 0.548 | 0.502 | 0.495 | 0.533 | 0.354 | 0.249 | 0.764 | 0.798 | 0.716 | 0.456 | 0.583
NCI-H650 | 1.05 | 0.789 | 0.762 | 0.917 | 1.04 | 1.05 | 0.805 | 0.922 | 1.01 | 1.06 | 0.422 | 0.498 | 0.458 | 0.377 | 0.415 | 0.376 | 0.4 | 0.479 | 0.499
NCI-H661 | 0.345 | 0.362 | 0.462 | 0.388 | 0.354 | 0.651 | 0.718 | 0.628 | 0.668 | 0.756 | 0.28 | 0.264 | 0.276 | 0.252 | 0.862 | 0.951 | 0.702 | 0.761 | 0.727
NCI-H727 | 0.581 | 0.476 | 0.348 | 0.397 | 0.302 | 0.377 | 0.43 | 0.358 | 0.35 | 0.321 | 0.543 | 0.593 | 0.531 | 0.565 | 1.24 | 1.17 | 1.13 | 1.27 | 1.19
NCI-H838 | 0.481 | 0.331 | 0.428 | 0.474 | 0.438 | 0.572 | 0.586 | 0.473 | 0.621 | 0.575 | 0.57 | 0.502 | 0.525 | 0.655 | 0.861 | 0.79 | 0.759 | 0.755 | 0.73
NCI-H1355 | 0.484 | 0.366 | 0.335 | 0.465 | 0.478 | 0.451 | 0.343 | 0.43 | 0.346 | 0.477 | 0.474 | 0.455 | 0.426 | 0.403 | 0.665 | 0.673 | 0.544 | 0.679 | 0.705
NCI-H1395 | 0.729 | 0.646 | 0.659 | 0.694 | 0.618 | 1.12 | 1.1 | 0.946 | 1.05 | 1.12 | 0.435 | 0.429 | 0.421 | 0.471 | 0.757 | 0.706 | 1.16 | 0.755 | 0.666
NCI-H1437 | 0.465 | 0.356 | 0.373 | 0.426 | 0.47 | 0.637 | 0.582 | 0.484 | 0.64 | 0.581 | 0.388 | 0.308 | 0.275 | 0.285 | 0.992 | 0.946 | 0.831 | 0.878 | 0.808
NCI-H1650 | 0.742 | 0.666 | 0.476 | 0.559 | 0.591 | 0.513 | 0.694 | 0.462 | 0.818 | 0.562 | 0.361 | 0.392 | 0.445 | 0.205 | 0.61 | 0.53 | 0.524 | 0.549 | 0.681
NCI-H1651 | 0.683 | 0.476 | 0.63 | 0.699 | 0.736 | 0.948 | 0.909 | 0.842 | 0.827 | 0.821 | 0.3 | 0.354 | 0.31 | 0.237 | 0.487 | 0.591 | 0.525 | 0.566 | 0.553
NCI-H1666 | 0.524 | 0.419 | 0.371 | 0.409 | 0.551 | 0.82 | 1 | 0.738 | 0.839 | 0.859 | 0.549 | 0.562 | 0.636 | 0.594 | 1.03 | 1.03 | 1.18 | 1.09 | 0.964
NCI-H1734 | 0.561 | 0.538 | 0.516 | 0.479 | 0.452 | 0.829 | 0.615 | 0.666 | 0.666 | 0.627 | 0.411 | 0.367 | 0.374 | 0.264 | 0.839 | 0.704 | 0.772 | 0.766 | 0.892
NCI-H1755 | 0.488 | 0.429 | 0.507 | 0.429 | 0.522 | 0.852 | 0.777 | 0.753 | 0.692 | 0.836 | 0.643 | 0.615 | 0.613 | 0.63 | 0.954 | 0.742 | 0.682 | 0.861 | 0.873
NCI-H1793 | 0.367 | 0.35 | 0.293 | 0.314 | 0.256 | 0.474 | – | 0.421 | 0.424 | 0.466 | 0.356 | 0.385 | 0.414 | 0.273 | 1.05 | – | 0.885 | 0.987 | 0.784
NCI-H1915 | 1.08 | 0.939 | 1.04 | 0.959 | 1.01 | 0.328 | 0.318 | 0.284 | 0.299 | 0.305 | 0.364 | 0.367 | 0.388 | 0.365 | 0.599 | 0.544 | 0.488 | 0.573 | 0.57
NCI-H1944 | 0.369 | 0.322 | 0.339 | 0.399 | 0.366 | 0.448 | 0.443 | 0.401 | 0.388 | 0.376 | 0.23 | 0.202 | 0.19 | 0.206 | 0.669 | 0.549 | 0.54 | 0.559 | 0.538
NCI-H1975 | 0.325 | 0.295 | 0.369 | 0.335 | 0.331 | 0.355 | 0.35 | 0.36 | 0.396 | 0.381 | 0.419 | 0.392 | 0.389 | 0.309 | 0.87 | 0.7 | 0.778 | 0.796 | 0.76
NCI-H1993 | 0.718 | 0.81 | 0.894 | 0.779 | 0.899 | 0.531 | 0.48 | 0.479 | 0.487 | 0.588 | 0.527 | 0.537 | 0.475 | 0.589 | 0.742 | 0.728 | 0.736 | 0.592 | 0.694
NCI-H2009 | 1.31 | 0.917 | 0.841 | 1.03 | 0.93 | 0.28 | 0.224 | 0.215 | 0.287 | 0.266 | 0.486 | 0.551 | 0.496 | 0.427 | 0.789 | 0.676 | 0.663 | 0.8 | 0.661
NCI-H2023 | 0.309 | 0.316 | 0.176 | 0.216 | 0.252 | 0.721 | 0.61 | 0.46 | 0.632 | 0.505 | 0.437 | 0.389 | 0.358 | 0.193 | 0.793 | 0.821 | 0.525 | 0.71 | 0.687
NCI-H2085 | 0.462 | 0.372 | 0.536 | 0.46 | 0.455 | 0.391 | 0.518 | 0.514 | 0.612 | 0.544 | 0.668 | 0.757 | 0.784 | 0.761 | 0.788 | 0.814 | 0.77 | 0.819 | 0.816
NCI-H2087 | 0.961 | 0.975 | 0.99 | 1.22 | 1.02 | 0.181 | 0.167 | 0.196 | 0.245 | 0.202 | 0.456 | 0.442 | 0.525 | 0.461 | 0.674 | 0.551 | 1.07 | 0.874 | 0.898
NCI-H2126 | 0.517 | 0.48 | 0.453 | 0.483 | 0.5 | 0.666 | 0.612 | 0.599 | 0.52 | 0.538 | 0.525 | 0.538 | 0.531 | 0.568 | 0.945 | 0.803 | 0.689 | 0.691 | 0.816
NCI-H2170 | 0.326 | 0.253 | 0.253 | 0.34 | 0.316 | 1.26 | 0.804 | 0.997 | 0.944 | 0.911 | 0.444 | 0.404 | 0.407 | 0.441 | 1.09 | 0.835 | 0.742 | 0.878 | 0.71
